From ChEMBL document CHEMBL4321787, “Overview of Recent Strategic Advances in Medicinal Chemistry” (J Med Chem, 2019)

Tests used:
[1] = system: Human immunodeficiency virus 1; assay: Antiviral activity against HIV1 infected in human MT2 cells incubated for 5 days; assay type: functional, organism-based; details: Human immunodeficiency virus 1, MT2, 120 h
[2] = Cytotoxicity against human MT2 cells incubated for 5 days; assay type: cell-based
Histone deacetylase = assay: Inhibition of HDAC (unknown origin) using Fluoro-Substrate Peptide as substrate by fluorescence assay; assay type: protein assay, Homo sapiens
[3] = system: Human immunodeficiency virus 1; assay: Antiviral activity against HIV1 3B infected in human MT2 cells incubated for 5 days by MTT assay; assay type: functional, organism-based; details: Human immunodeficiency virus 1, 3B, MT2, 120 h
[4] = biological target: T1, Envelope glycoprotein gp160 (Human immunodeficiency virus 1, UniProt Q6QLK5); assay: Inhibition of HIV1 JRFL gp120 assessed as reduction in CD4/gp 120 complex formation incubated for 1 hr by ELISA
T1 sequence (Q6QLK5 whole entry): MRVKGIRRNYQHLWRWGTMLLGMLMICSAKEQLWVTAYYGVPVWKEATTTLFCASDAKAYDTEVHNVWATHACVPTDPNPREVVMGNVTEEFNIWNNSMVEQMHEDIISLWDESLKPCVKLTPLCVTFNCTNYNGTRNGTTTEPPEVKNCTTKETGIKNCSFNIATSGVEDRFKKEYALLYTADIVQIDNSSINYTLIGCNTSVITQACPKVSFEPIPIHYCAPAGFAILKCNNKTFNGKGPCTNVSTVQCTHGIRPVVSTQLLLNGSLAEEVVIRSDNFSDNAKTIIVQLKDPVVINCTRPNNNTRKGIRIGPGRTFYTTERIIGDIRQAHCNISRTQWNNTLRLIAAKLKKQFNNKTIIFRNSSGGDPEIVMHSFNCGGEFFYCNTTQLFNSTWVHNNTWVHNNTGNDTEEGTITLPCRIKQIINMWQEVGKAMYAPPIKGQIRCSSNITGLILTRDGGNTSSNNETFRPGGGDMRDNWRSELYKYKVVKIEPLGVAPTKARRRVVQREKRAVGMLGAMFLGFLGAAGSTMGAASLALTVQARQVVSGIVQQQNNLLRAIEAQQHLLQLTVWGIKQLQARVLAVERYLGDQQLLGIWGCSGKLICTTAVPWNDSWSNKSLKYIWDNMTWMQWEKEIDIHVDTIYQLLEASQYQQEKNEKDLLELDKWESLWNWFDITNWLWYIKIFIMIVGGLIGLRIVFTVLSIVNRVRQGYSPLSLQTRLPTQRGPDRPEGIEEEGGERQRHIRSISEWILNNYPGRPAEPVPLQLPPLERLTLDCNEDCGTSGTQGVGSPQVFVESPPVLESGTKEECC

[5] = biological target: T1, Envelope glycoprotein gp160; assay: Inhibition of HIV1 gp120 assessed as increase in anti-DNP binding to immobilized HIV-1 gp120 incubated for 1 hr by ELISA
Protease = Protease (Human immunodeficiency virus 1, UniProt Q9YQ12); assay: Inhibition of HIV1 protease using RE(Edans)SGIFLETSK(Dabcyl)R as substrate by fluorescence method
Protease, sequence (Q9YQ12 whole entry): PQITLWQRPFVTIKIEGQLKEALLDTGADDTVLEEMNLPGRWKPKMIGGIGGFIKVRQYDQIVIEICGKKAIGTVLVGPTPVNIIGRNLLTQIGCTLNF

[6] = Inhibition of HIV1 reverse transcriptase p66/p51 K103N/Y181C mutant infected in human MT2 cells assessed as reduction in viral infection incubated for 5 days
[7] = Inhibition of Acinetobacter baumannii N-terminal ADC-7 cephalosporinase expressed in Escherichia coli BL21(DE3) incubated for 5 mins by UV-vis spectrophotometric method
Histone deacetylase 3 = Histone deacetylase 3 (Homo sapiens, UniProt O15379); assay: Inhibition of HDAC3 (unknown origin)
Histone deacetylase 3, sequence (O15379 whole entry): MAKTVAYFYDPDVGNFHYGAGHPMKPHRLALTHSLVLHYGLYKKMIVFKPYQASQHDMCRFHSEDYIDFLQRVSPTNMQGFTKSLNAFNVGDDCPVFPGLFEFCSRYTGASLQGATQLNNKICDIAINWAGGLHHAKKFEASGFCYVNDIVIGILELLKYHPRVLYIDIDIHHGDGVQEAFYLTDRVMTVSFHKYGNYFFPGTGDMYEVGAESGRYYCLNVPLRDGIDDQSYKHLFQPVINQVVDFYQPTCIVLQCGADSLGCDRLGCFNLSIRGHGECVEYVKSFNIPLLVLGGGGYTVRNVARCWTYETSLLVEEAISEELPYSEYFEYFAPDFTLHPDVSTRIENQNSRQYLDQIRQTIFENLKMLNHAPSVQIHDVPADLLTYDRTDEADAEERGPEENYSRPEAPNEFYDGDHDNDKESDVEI

## C=CC(=O)N(C)c1cc(Oc2ccccc2OCCn2ccc(=O)[nH]c2=O)c(C)c2cc(C#N)ccc12
[1]
  EC50: 560 nM
[2]
  CC50 at 120 h: 32000 nM

## Nc1ccccc1NC(=O)c1ccc(-c2cn(CCc3ccsc3)nn2)cc1
Histone deacetylase
  IC50: > 100000 nM

## COc1ccc(-c2ccc(CNC(=O)COCCOCCOCCOCCn3cc(COCCOCCOCCOCCNc4ccc([N+](=O)[O-])cc4[N+](=O)[O-])nn3)o2)c2[nH]cc(C(=O)C(=O)N3CCN(C(=O)c4ccccc4)CC3)c12
[3]
  IC50: 13 nM
[4]
  IC50: 330 nM
[5]
  EC50: 1120 nM

## Cc1c(Oc2ccccc2OCCn2ccc(=O)[nH]c2=O)cc(N(C)C(=O)CF)c2ccc(C#N)cc12
[1]
  EC50: 890 nM
[2]
  CC50 at 120 h: > 100000 nM

## Cc1c(Oc2ccccc2OCCn2ccc(=O)[nH]c2=O)cc(N(C)C(=O)CCl)c2ccc(C#N)cc12
[1]
  EC50: 580 nM
[2]
  CC50 at 120 h: 32000 nM

## CC(C)CN(C[C@@H](O)[C@H](Cc1ccccc1)NC(=O)O[C@H]1CO[C@H]2OCC[C@H]21)S(=O)(=O)c1ccc(B(O)O)cc1
Protease
  Ki: 0.0005 nM

## COc1ccc(-c2ccco2)c2[nH]cc(C(=O)C(=O)N3CCN(C(=O)c4ccccc4)CC3)c12
[3]
  IC50: 0.064 nM
[4]
  IC50: 130 nM

## C=CC(=O)Nc1cc(Oc2ccccc2OCCn2ccc(=O)[nH]c2=O)c(C)c2cc(C#N)ccc12
[1]
  EC50: 1600 nM
[2]
  CC50 at 120 h: 11000 nM

## Cc1c(Oc2ccccc2OCCn2ccc(=O)[nH]c2=O)cc(Cl)c2ccc(C#N)cc12
[1]
  EC50: 6.2 nM
[2]
  CC50 at 120 h: > 100000 nM
[6]
  EC50: 280 nM

## O=C(Cc1cccs1)N[C@@H](Cn1cc(C(=O)O)nn1)B(O)O
[7]
  Ki: 44 nM

## O=C(NO)c1cccc(-c2cn(CSc3ccccc3)nn2)c1
Histone deacetylase 3
  IC50: 68000 nM

## COc1ccnc2[nH]cc(C(=O)C(=O)N3CCN(C(=O)c4ccccc4)C[C@H]3C)c12
[4]
  IC50: 8700 nM

## Nc1ccccc1NC(=O)c1ccc(-c2cn(CCc3cccc([N+](=O)[O-])c3)nn2)s1
Histone deacetylase
  IC50: > 100000 nM

## C[C@@H]1CN(C(=O)c2ccccc2)CCN1C(=O)C(=O)c1c[nH]c2nccc(OCCOCCOCCOCCOCCOCCn3cc(COCCOCCOCCOCCNc4ccc([N+](=O)[O-])cc4[N+](=O)[O-])nn3)c12
[4]
  IC50: 19900 nM
[5]
  EC50: 37900 nM
